What was measured:
Type in all cases: in vivo
[1] = tested on: C57BL/6J mice with alopecia areata; assay: Alopecia areata mouse model, oral gavage; details: 80 mg/kg twice a day oral gavage for 23 d
Experimental: Drug preparation: appropriate amount of powder of test sample was weighed accurately and put in a sample preparation tube, then add purified water was added and sonification was performed until the sample was completely dissolved. A concentration of 8 mg/ml (based on active ingredient) was prepared, and it was administered within 15 minutes after preparation.
Experimental animals: 16 C57BL/6J mice with alopecia areata, female, 12 weeks old. They were purchased from Beijing Vital River Laboratory Animal Technology Co., Ltd. Animal inclusion criteria: mice with patchy and traceless hair loss, mainly with back hair loss and head hair loss.
Grouping and criteria: 14 C57BL/6J mice were enrolled in the groups, and 5 mice in the model group, 9 mice in the administration group (test sample). The overall situation of hair loss in the administration group was more serious than that in the model group.
Administration information: administration group: single dose: 80 mg/kg (based on active ingredient) twice a day for 23 d continuously; model group: equal doses of vehicle given. Method of administration: oral gavage.
Record of change rate of body weight and alopecia areata area: measured twice a week, weighed and observed with naked eyes on Monday and Thursday.
Spleen size and weight: at the end of the test, the body weight of mice was weighed, and then the mice were subjected to gross anatomy, the spleen of the mice was observed and weighed to calculate the spleen/body weight ratio of mice.

[2] = tested on: Balb/c mice; assay: DNCB-induced atopic dermatitis model in mice, oral gavage; details: 50 mg/kg twice a day oral gavage, vs model group
Experimental: Drug preparation: appropriate amount of powder of sample for test was weighed accurately and put in a sample preparation tube. Purified water was added and sonication was performed until the sample was completely dissolved, and a concentration of 5 mg/ml (based on active ingredient) was prepared, and it was administered within 15 minutes after preparation.
Experimental animals: Balb/c mice were purchased from Sichuan Academy of Traditional Chinese Medicine, 27 mice in total.
Grouping: Balb/c mice (27 mice in total) were randomly divided into three groups, 9 mice in each group, which were blank group, model group and administration group respectively.
Modeling: 300 μl of 1% DNCB was applied to the abdomen of mice in the model group and administration group, and 0.5% DNCB was applied to the ears every other day after 7 d, and lasted for 31 days.
Administration: administration was carried out after 12 days of modeling. Administration group: dosage and frequency of administration: 50 mg/kg (based on active ingredient), twice a day. Model group: the same dose of vehicle was given. The administration cycle was 3 weeks (12 d-31 d). The method of administration: oral gavage.
• (1) General observation: ear thickness and spleen/body weight ratio. At the end point of the test, the body weight of mice was weighed, and the left and right ear thickness (mm) of mice was measured, and then the mice were subjected to gross anatomy, and the spleen of mice was weighed to calculate the spleen/body weight ratio of mice. • (2) Serum: IgE. At the end point of the test, blood was collected from the orbit of mice, and the total IgE in the serum of mice was detected (ELISA method). • (3) Histopathology: HE staining of the ear (to measure ear epidermal thickness) and toluidine blue staining (to measure the number of mast cells in the ear epidermis).
HE staining of ears: the fixed mouse ear tissue was dehydrated by automatic dehydrator and embedded, and then sliced. After dewaxing the slices to water, hematoxylin staining was performed until blue appeared; after elution, eosin staining was performed for sealing, and finally microscopy and image acquisition were carried out.
The above specimens were subjected to the procedures of dehydration, trimming, embedding, slicing, staining, sealing, and other procedures, and finally microscopy and image acquisition were carried out.

[3] = tested on: normal animals; assay: Spleen weight in normal animals; details: no dose or method printed
[4] = end point, vs model group, p<0.05

`C=CC(=O)N(C)c1cc(Nc2ncc(Cl)c(NCCCNC(=O)c3ccc(C#N)cc3)n2)ccc1F` [test sample, N-(3-((5-chloro-2-((4-fluoro-3-(N-methylacrylamido)phenyl)amino)-4-pyrimidinyl)amino)propyl)-4-cyanobenzamide] was tested, and the spleen weight [1, 4] was “significantly lower”, the spleen/body weight ratio [1, 4] was “significantly lower” and the alopecia areata area ([1]; better than model group (vehicle), p<0.01) was “significantly ameliorated”. The spleen/body weight ratio ([2]; 3 weeks (12 d-31 d), end point, # p<0.05) was “significantly reduced”, the ear epidermal thickness ([2]; 3 weeks, HE staining, # p<0.05) was “significantly decreased” and the “serum IgE level” value ([2]; 3 weeks, end point, ELISA, ## p<0.01) was “significantly decreased”. The “ear thickness (including the left ear and the right ear)” value ([2]; 3 weeks, end point, # p<0.05) was “significantly reduced”, the “number of mast cells in ear epidermis” value ([2]; 3 weeks, toluidine blue staining, # p<0.05) was “significantly decreased” and the “weight of spleen in normal animals” value [3] was “does not reduce the weight of spleen”.
